Reference: paper doi:10.1101/2025.03.14.643404, “A Bivalent Molecular Glue Linking Lysine Acetyltransferases to Oncogene-induced Cell Death” (bioRxiv, 2025)

What was measured:
[1] = molecular target: T1, CBP (Homo sapiens, UniProt Q92793); test: Global proteome profiling in SUDHL5, CBP abundance; type: cell-based; details: SUDHL5, 10 nM, 24 hours
T1 construct: endogenous in cells; host or cells: SUDHL5
Description: SUDHL5 cells (6M cells in 6 mL RPMI-1640 media supplemented with 10% FBS and 1x pen-strep) were treated with 0.1% DMSO, 10 nM TCIP3, 10 nM Neg1, 10 nM Neg2, or 250 nM dCBP1 (1000x stocks in DMSO for final 0.1% DMSO concentration) in 3 biologically independent replicates. The cells were washed twice with TBS (50 mM Tris, pH 8.5, and 150 mM NaCl) and then stored at −80 °C until use.
Lysis was performed by first thermally denaturing the samples in residual wash buffer for 5 min at 95 °C. Fresh Lysis Buffer (8 M urea, 150 mM NaCl, and 100 mM HEPES, pH 8.0, in MS-grade water) was then added, and the lysates were homogenized using needle ultrasonication and then normalized to 30 μg of 2 mg/mL by diluting with Lysis Buffer via a Bradford protein concentration assay (Bio-Rad 5000006) in technical duplicates. […]
Samples were then desalted using SOLAμ SPE HRP Peptide Desalting columns (Thermo 60209–001) with a Positive Pressure Manifold and all MS-grade reagents. […] The samples were then reconstituted in 0.1% FA in water and then analyzed by LC-MS/MS (see below).
The reconstituted desalted peptides were then analyzed using a nanoElute 2 UHPLC (Bruker Daltonics, Bremen, Germany) coupled to a timsTOF HT (Bruker Daltonics, Bremen, Germany) via a CaptiveSpray nano-electrospray source. […]

[2] = tested on: SUDHL5 cells; test: Cell cycle analysis (EdU / 7-AAD) of SUDHL5; type: cell-based, human; details: SUDHL5, 10 nM, 24 hours
Description: 2 million SUDHL5 cells were plated in 4 mL of media in 6-well plates and treated with 10 nM of drug. After 22 hours, cells were dosed with 10 μM 5-ethynyl-2’-deoxyuridine (EdU) and allowed to incubate for an additional 2 hours, at which point cells were harvested and collected by centrifuging at 300g for 4 minutes at 4°C. Cells were washed once with 1% BSA in PBS. 1.1 million cells in 1% BSA/PBS were then transferred to flow cytometry polypropylene tubes and centrifuged at 300g for 4 minutes at 4°C. Supernatant was removed, and cells were fixed for 15 minutes in the dark at room temperature with 100 μL of 4% PFA in PBS, in which gentle flicking was used to resuspend cells. Cells were then washed with 1 mL of 1% BSA/PBS and permeabilized with 100 μL of 0.1% Triton-X for 30 minutes at room temperature in the dark. Cells were washed with 3 mL 1% BSA/PBS, then incubated in the dark for 30 minutes with a cocktail of AlexaFluor-488-Azide (438 μL PBS, 10 μL 100 mM CuSO4, 2 μL 488-azide, and 50 μL of 1x EdU Reaction Buffer dissolved in water) (Invitrogen C10337). Cells were washed with 1 mL 1% BSA in PBS, then incubated with a reaction cocktail of 7-AAD/RNAseA for 30 minutes in the dark (500 μL 1% BSA/PBS, 2 μL 7-AAD (BD 559925), 5 μL RNAseA (Invitrogen 12091021)). […] Cells were gently agitated by shaking, then analyzed through flow cytometry on a BD Accuri. […]

T1 sequence (Q92793 whole entry): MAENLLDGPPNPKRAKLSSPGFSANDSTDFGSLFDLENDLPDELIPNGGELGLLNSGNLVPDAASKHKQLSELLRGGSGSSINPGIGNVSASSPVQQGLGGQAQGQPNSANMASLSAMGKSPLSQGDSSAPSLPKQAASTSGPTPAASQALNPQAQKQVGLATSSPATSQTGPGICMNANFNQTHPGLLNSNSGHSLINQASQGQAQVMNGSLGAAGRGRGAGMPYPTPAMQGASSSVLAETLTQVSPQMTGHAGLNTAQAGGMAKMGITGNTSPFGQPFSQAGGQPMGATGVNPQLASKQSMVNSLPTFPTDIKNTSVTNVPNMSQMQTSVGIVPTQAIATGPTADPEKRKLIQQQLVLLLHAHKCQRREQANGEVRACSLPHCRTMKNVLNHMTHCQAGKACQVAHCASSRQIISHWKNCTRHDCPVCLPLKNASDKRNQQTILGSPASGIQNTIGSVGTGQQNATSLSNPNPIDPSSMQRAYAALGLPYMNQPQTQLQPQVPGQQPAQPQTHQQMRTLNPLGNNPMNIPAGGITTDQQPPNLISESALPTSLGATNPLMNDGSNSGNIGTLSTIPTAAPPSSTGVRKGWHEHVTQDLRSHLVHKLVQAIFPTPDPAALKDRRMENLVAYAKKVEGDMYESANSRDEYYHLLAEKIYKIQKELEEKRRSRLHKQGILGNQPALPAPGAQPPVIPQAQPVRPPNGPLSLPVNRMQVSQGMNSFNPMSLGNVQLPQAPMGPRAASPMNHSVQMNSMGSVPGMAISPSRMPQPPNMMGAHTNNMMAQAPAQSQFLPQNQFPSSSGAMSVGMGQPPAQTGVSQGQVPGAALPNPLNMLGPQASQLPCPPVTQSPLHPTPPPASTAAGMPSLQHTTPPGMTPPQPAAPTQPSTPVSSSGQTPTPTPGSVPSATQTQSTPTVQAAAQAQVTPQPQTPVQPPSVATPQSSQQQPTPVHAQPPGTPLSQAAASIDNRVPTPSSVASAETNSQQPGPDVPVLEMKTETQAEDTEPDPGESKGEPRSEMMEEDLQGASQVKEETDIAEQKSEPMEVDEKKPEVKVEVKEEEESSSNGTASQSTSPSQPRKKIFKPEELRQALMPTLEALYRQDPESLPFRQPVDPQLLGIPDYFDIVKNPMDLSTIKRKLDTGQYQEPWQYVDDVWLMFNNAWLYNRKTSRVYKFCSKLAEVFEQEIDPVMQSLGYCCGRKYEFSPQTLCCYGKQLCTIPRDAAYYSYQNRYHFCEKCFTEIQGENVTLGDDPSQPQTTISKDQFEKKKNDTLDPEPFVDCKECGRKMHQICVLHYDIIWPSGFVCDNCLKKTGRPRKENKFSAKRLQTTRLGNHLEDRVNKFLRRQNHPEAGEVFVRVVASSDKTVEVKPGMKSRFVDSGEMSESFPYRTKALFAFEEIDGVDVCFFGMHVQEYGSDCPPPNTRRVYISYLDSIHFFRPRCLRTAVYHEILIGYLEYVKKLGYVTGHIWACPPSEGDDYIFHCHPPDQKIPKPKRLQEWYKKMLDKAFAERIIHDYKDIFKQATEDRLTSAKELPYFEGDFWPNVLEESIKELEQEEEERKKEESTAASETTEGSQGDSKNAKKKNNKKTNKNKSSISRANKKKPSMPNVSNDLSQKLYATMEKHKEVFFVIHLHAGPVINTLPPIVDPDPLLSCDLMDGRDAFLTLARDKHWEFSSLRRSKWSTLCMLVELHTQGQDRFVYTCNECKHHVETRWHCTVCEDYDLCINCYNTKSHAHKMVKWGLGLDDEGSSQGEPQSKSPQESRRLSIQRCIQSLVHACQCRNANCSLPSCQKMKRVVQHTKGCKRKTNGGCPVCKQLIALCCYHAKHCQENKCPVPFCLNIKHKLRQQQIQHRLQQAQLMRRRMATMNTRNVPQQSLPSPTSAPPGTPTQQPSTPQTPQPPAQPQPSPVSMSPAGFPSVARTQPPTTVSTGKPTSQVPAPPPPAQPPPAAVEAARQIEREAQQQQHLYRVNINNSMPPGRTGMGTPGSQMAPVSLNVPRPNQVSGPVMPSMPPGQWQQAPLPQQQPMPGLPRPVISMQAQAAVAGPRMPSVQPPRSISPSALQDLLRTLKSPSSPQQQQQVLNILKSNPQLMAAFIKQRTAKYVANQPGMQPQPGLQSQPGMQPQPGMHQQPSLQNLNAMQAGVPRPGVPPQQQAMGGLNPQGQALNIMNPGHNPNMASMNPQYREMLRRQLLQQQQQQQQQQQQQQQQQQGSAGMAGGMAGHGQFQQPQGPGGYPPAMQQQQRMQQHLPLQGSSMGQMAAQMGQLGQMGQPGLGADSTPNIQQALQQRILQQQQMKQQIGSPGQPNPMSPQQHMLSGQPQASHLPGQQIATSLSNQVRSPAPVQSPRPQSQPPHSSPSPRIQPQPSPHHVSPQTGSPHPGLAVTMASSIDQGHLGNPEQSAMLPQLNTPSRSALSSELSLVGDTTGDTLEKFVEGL

## CNC(=O)COc1cc2cc(Nc3nc(N4CCC(C(=O)N5CCN(CCC(=O)N6CCC(n7nc(N8CCCc9cc(-c%10cnn(C)c%10)c(C(F)F)cc98)c8c7CCN(C(=O)NC)C8)CC6)CC5)CC4)ncc3Cl)cc(OC)c2n(C)c1=O [TCIP3]
[1]
  CBP protein abundance log2(fold change): 0.58
[2]
  cell cycle effect: enrichment in cells arrested in G0/G1
